{
  "source": "patent US20260240810A1",
  "about": "“COMPOSITIONS AND METHODS FOR REDUCING ADVERSE SIDE EFFECTS IN CANCER TREATMENT” (priority 2022, published 2026)",
  "key": {"[1]": {"tested_on": "severe oral mucositis in patients receiving head and neck chemoradiotherapy", "assay": "PREVLAR Phase 2a trial: oral mucositis in patients receiving cisplatin + IMRT", "type": "in vivo, human", "settings": "for Median SOM duration: all patients, baseline to last day of radiation, 0 days if never SOM; for percent of SOM visits: minimum 65 Gy cumulative radiation; for median duration of SOM: only patients who developed SOM, onset to last visit with SOM", "procedure": "Referring to FIG. 1, FIG. 1 is a table 100 showing a trial in which RRx-001 was tested in various groups of patients that were being treated for cancer with a combination of chemotherapy and IMRT. The various groups were divided into “Arms” based on a treatment: • Arm 1. pretreatment with 4 mg RRx-001 2 times per week for 2 weeks followed by 40 mg/m^2 each week or 100 mg/m^2 once every 3 weeks cisplatin+IMRT. • Arm 2. pretreatment with 4 mg RRx-001 2 times per week for 2 weeks followed by cotreatment with 4 mg RRx-001 2 times once on week 2 and once on week 5+40 mg/m^2 each week or 100 mg/m^2 once every 3 weeks cisplatin+IMRT. • Arm 3. pretreatment with 4 mg RRx-001 2 times per week for 2 weeks followed by cotreatment with 4 mg RRx-001 […]+40 mg/m^2 each week or 100 mg/m^2 once every 3 weeks cisplatin+IMRT. • Arm 4. standard of care 40 mg/m^2 each week or 100 mg/m^2 once every 3 weeks cisplatin+IMRT without RRx-001.\nAccordingly, patients in Arm 1 of the study were administered a pretreatment of RRx-001 over a 2-week period. No RRx-001 was administered to the patients following the pretreatment period. Following the 2-week pretreatment period, the therapeutic agent comprising cisplatin and IMRT was administered to the patients over a 6-week period.\nPatients in Arm 2 of the study were likewise administered a pretreatment of RRx-001 over a 2-week period. But RRx-001 was further administered at a low dose concurrently with cisplatin and IMRT over the 6-week period following the pretreatment period.\nArm 4 of the study was the control or standard of care (SOC). No RRx-001 was administered to the patients in Arm 4 of the study and there was no pretreatment period. All patients received the same amounts of cisplatin and IMRT for Arm 1, Arm2, Arm 3, and Arm 4 of the study. Patients in the study had the option to stop or refuse treatment at any time and not all patients finished the entire treatment.\nExample 2 is a Phase 2a randomized, multi-institutional (n=13, of which 12 enrolled), open-label/unblinded, controlled trial in which patients were centrally randomized into four groups (“Arms”), with approximately 10 patients per Arm (or group) before the start of CRT, stratified by oropharynx versus oral cavity site. See M. Bonomi, et al. (2023) Int. J. Radiat. Oncol. Biol. Phys. 116(3): p. 551-559.\nStudy participants were adults (>18 years) with pathologically diagnosed stage III to IVB locally advanced (nonmetastatic) squamous cell carcinoma of the oral cavity or oropharynx that were scheduled to receive definitive or postoperative daily fractionation IMRT of 2.0 Gy to 2.2 Gy for a total dose of 60 Gy to 72 Gy with concomitant cisplatin given as either weekly (40 mg/m^2) or tri-weekly (100 mg/m^2) infusions. Radiation fields included at least 2 oral sites at risk of OM (e.g., buccal mucosa, floor of mouth, lateral/ventral tongue, or soft palate), which were planned to receive a minimum cumulative dose of 55 Gy. […] Patients received a pretreatment evaluation including complete history, dental assessment, physical examination, complete blood count and complete metabolic profile, hematology and biochemistry profiles, optional laryngoscopy, chest computed tomography (CT) or positron emission tomography (PET)/CT, CT, and a magnetic resonance imaging (MRI) or PET/CT of the tumor site and neck nodes.\nArms 1 to 3 received twice weekly infusions of RRx-001, 4 mg/dose after a premedication dose of dexamethasone (10 mg) for the 2 weeks preceding the start of CRT. Patients in Arm 2 received two additional 4 mg doses of RRx-001 after being premedicated with dexamethasone in weeks 2 and 5 of their CRT regimen. Patients in Arm 3 received weekly RRx-001 (4 mg after dexamethasone pre-dosing) during the first 6 weeks of CRT. Treatment was completed on the last day of radiation therapy (LDRT).\nThe treatment phase commenced 2 weeks before the start of CRT and continued until the LDRT. […]"}, "[2]": {"settings": "pharmacokinetic data, J. Scicinski et al. 2011; cited from earlier work"}, "[3]": {"tested_on": "squamous cell carcinoma of the oral cavity or oropharynx", "assay": "PREVLAR trial: tumor response and cancer recurrence", "type": "in vivo, human", "excerpt": "Referring to FIG. 6, FIG. 6 is a table 600 showing various incidences of outcomes for patients in Arm 4 of the PREVLAR study vs. patients in Arms 1, 2, and 3 of the PREVLAR study. The various outcomes include a complete response (CR), a partial response (PR), a CR or PR, not evaluable (NE), and missing. […] Thus, administration of RRx-001 was correlated to better outcomes.\nReferring to FIG. 10, FIG. 10 is a bar graph 1000 showing a percentage of less cancer recurrence in RRx-001 treated patients. Accordingly, a higher percentage is correlated to the better outcome of lower cancer recurrence. […] Patients in Arm 4 had the lowest percentage drop of 30.8% of cancer recurrence.\nThe treatment phase commenced 2 weeks before the start of CRT and continued until the LDRT. The short-term follow-up stage started the day after LDRT and continued until complete resolution of ulcerative OM (World Health Organization (WHO) grade≤1 or 6 weeks after the LDRT, whichever came first). Long-term follow-up was performed to assess tumor response for 12 months after the LDRT. OM was assessed twice weekly beginning on the first day of CRT and continuing to resolution of ulcerative OM by trained evaluators using a standardized data collection tool."}, "[4]": {"settings": "Arm 1: RRx-001 pretreatment + SOC chemoradiation"}},
  "data": [
    {"smiles": "O=C(CBr)N1CC([N+](=O)[O-])([N+](=O)[O-])C1", "note": "[RRx-001, 2-bromo-1-(3,3-dinitroazetidin-1-yl) ethan-1-one]", "values": [
      {"measurement": "estimate (averaged across all visits) MMRM probability of SOM", "setting": "[1]; (pooled) RRx-001 treatment", "value": 15.3, "unit": "%"},
      {"measurement": "incidence of SOM (any WHO score ≥3 between baseline to the last day of radiation)", "setting": "[1]; Arm 1", "value": 83.3, "unit": "%"},
      {"measurement": "patients with at least one day of Grade 4 OM between the first and LDRT", "setting": "[1]; Arm 1", "value": 23.1, "unit": "%"},
      {"measurement": "percent of visits with most severe forms (Grade 4) mucositis", "setting": "[1]; Arm 1", "value": 3.3, "unit": "%"},
      {"measurement": "decrease in duration of SOM through 60 Gy vs. Arm 4", "setting": "[1]; Arm 1: 4 mg RRx-001 2 times per week for 2 weeks pretreatment, then cisplatin+IMRT", "value": 16, "unit": "days"},
      {"measurement": "average days longer than Arm 4 before onset of SOM from start of chemotherapy", "setting": "[1]; [4]", "value": 12, "unit": "days"},
      {"measurement": "decrease in SOM duration following treatment of IMRT compared to Arm 4", "setting": "[1]; [4]", "value": 18, "unit": "days"},
      {"measurement": "Median SOM duration", "setting": "[1]; Arm 1", "value": 5, "unit": "days"},
      {"measurement": "percent of SOM visits", "setting": "[1]; Arm 1", "value": 23.6, "unit": "%"},
      {"measurement": "median duration of SOM", "setting": "[1]; Arm 1", "value": 8.5, "unit": "days"},
      {"measurement": "incidence of SOM (any WHO score ≥3 between baseline to the last day of radiation)", "setting": "[1]; Arm 2", "value": 70, "unit": "%"},
      {"measurement": "patients with at least one day of Grade 4 OM between the first and LDRT", "setting": "[1]; Arm 2", "value": 40, "unit": "%"},
      {"measurement": "percent of visits with most severe forms (Grade 4) mucositis", "setting": "[1]; Arm 2", "value": 12.2, "unit": "%"},
      {"measurement": "incidence of grade 4 OM through 60 Gy", "setting": "[1]; Arm 2: RRx-001 pretreatment + 2 concurrent doses + SOC chemoradiation", "value": 40, "unit": "%"},
      {"measurement": "Median SOM duration", "setting": "[1]; Arm 2", "value": 13.5, "unit": "days"},
      {"measurement": "percent of SOM visits", "setting": "[1]; Arm 2", "value": 22.2, "unit": "%"},
      {"measurement": "median duration of SOM", "setting": "[1]; Arm 2", "value": 17, "unit": "days"},
      {"measurement": "incidence of SOM (any WHO score ≥3 between baseline to the last day of radiation)", "setting": "[1]; Arm 3", "value": 76.9, "unit": "%"},
      {"measurement": "patients with at least one day of Grade 4 OM between the first and LDRT", "setting": "[1]; Arm 3", "value": 46.2, "unit": "%"},
      {"measurement": "percent of visits with most severe forms (Grade 4) mucositis", "setting": "[1]; Arm 3", "value": 7.7, "unit": "%"},
      {"measurement": "incidence of grade 4 OM through 60 Gy", "setting": "[1]; Arm 3: RRx-001 pretreatment + 6 concurrent doses + SOC chemoradiation", "value": 46, "unit": "%"},
      {"measurement": "Median SOM duration", "setting": "[1]; Arm 3", "value": 8, "unit": "days"},
      {"measurement": "percent of SOM visits", "setting": "[1]; Arm 3", "value": 25.7, "unit": "%"},
      {"measurement": "median duration of SOM", "setting": "[1]; Arm 3", "value": 10, "unit": "days"},
      {"measurement": "Odds ratio estimate", "setting": "[1]; MMRM analysis of SOM, contrast SOC alone / (Pooled RRx-001)", "value": 3.24},
      {"measurement": "SOM Probability (averaged across all visits)", "setting": "[1]; MMRM analysis, pooled RRx-001-treated patients", "value": 0.153},
      {"measurement": "aggregate percent of SOM visits", "setting": "[1]; active arms, patients with minimum 65 Gy cumulative radiation", "value": 23.9, "unit": "%"},
      {"measurement": "incidence of SOM through the short-term follow-up period", "setting": "[1]; active patients", "value": 80, "unit": "%"},
      {"measurement": "SOM incidence by the last dose of radiotherapy (LDRT)", "setting": "[1]; aggregate active Arms, about 72 Gy", "value": 77.1, "unit": "%"},
      {"measurement": "patients exhibiting SOM", "setting": "[1]; patients who received RRx-001 (treated Arms), cumulative RT dose 45 Gy", "value": 42.9, "unit": "%"},
      {"measurement": "patients exhibiting SOM", "setting": "[1]; treated Arms, 55 Gy", "value": 57.1, "unit": "%"},
      {"measurement": "patients exhibiting SOM", "setting": "[1]; treated Arms, 65 Gy", "value": 71.4, "unit": "%"},
      {"measurement": "half-life of RRx-001", "setting": "[2]", "value": "under an hour"},
      {"measurement": "percentage drop of cancer recurrence", "setting": "[3]; Arm 1", "value": 50, "unit": "%"},
      {"measurement": "percentage drop of cancer recurrence", "setting": "[3]; Arm 2", "value": 53.8, "unit": "%"},
      {"measurement": "percentage drop of cancer recurrence", "setting": "[3]; Arm 3", "value": 76.9, "unit": "%"},
      {"measurement": "incidence of either CR or PR", "setting": "[3]; patients in Arms 1, 2, or 3", "value": 65.7, "unit": "%"},
      {"measurement": "incidence of complete response (CR)", "setting": "[3]; patients that received RRx-001 in Arms 1, 2, or 3", "value": 48.6, "unit": "%"}
    ]}
  ]
}
